Test results taken from US9676708B2 (The Johns Hopkins University, priority 2012, dated 2017).
Counter-ions that a name gives are not always drawn. Like-named read-outs stand apart in the source and are kept apart here.

What was measured:
[1] = pH 7.4; see U.S. Pat. No. 8,030,356; cited from earlier work
[2] = HNO yield from N2O headspace analysis after complete decomposition, compared to 2BrPA; assay type: physicochemical; details: for % HNO: 37° C. in PBS (pH 7.4), N2O headspace analysis, reported in comparison to 2BrPA (SEM 5%; n = 3); for HNO production compared to 2BrPA: in words; for HNO yield: of the amount of HNO from 2BrPA
Text: As used herein, a compound is a “nitroxyl donor” if it donates nitroxyl under physiological conditions. As used herein, the presently disclosed nitroxyl donors alternatively may be referred to as “a compound” or “the compound.” Preferably, the nitroxyl donor is capable of donating an effective amount of nitroxyl in vivo and has a safety profile indicating the compound would be tolerated by an individual in the amount necessary to achieve a therapeutic effect. One of ordinary skill in the art would be able to determine the safety of administering particular compounds and dosages to live subjects. One of skill in the art also may determine whether a compound is a nitroxyl donor by evaluating whether it releases HNO under physiological conditions. Compounds are easily tested for nitroxyl donation with routine experiments. Although it is impractical to directly measure whether nitroxyl is donated, several tests are accepted for determining whether a compound donates nitroxyl. For example, the compound of interest can be placed in solution, for example in water, in a sealed container. After sufficient time for disassociation has elapsed, such as from several minutes to several hours, the headspace gas is withdrawn and analyzed to determine its composition, such as by gas chromatography and/or mass spectroscopy. If the gas N2O is formed (which occurs by HNO dimerization), the test is positive for nitroxyl donation and the compound is a nitroxyl donor. The level of nitroxyl-donating ability may be expressed as a percentage of a compound's theoretical maximum. A compound that donates a “significant level of nitroxyl” intends a compound that donates 40% or more or 50% or more of its theoretical maximum amount of nitroxyl. In one variation, the compounds for use herein donate 60% or more of the theoretical maximum amount of nitroxyl. In another variation, the compounds for use herein donate 70% or more of the theoretical maximum amount of nitroxyl. In another variation, the compounds for use herein donate 80% or more of the theoretical maximum amount of nitroxyl. In another variation, the compounds for use herein donate 90% or more of the theoretical maximum amount of nitroxyl. In yet another variation, the compounds for use herein donate between about 70% and about 90% of the theoretical maximum amount of nitroxyl. In yet another variation, the compounds for use herein donate between about 85% and about 95% of the theoretical maximum amount of nitroxyl. In yet another variation, the compounds for use herein donate between about 90% and about 95% of the theoretical maximum amount of nitroxyl.

[3] = Decomposition of 2-bromo-benzenesulfonamidyl-alkylamino carbonates 2 (2BrPA release) in PBS, UV/vis or HPLC; assay type: physicochemical
Experimental: The donor 2BrPA produces HNO in high yield at pH 7.4 with a single defined half-life of approximately 2 minutes. See U.S. Pat. No. 8,030,356, to Toscano et al., which is incorporated herein by reference in its entirety. Changing (R) on the trigger amine or the spacer length (n) in 2 makes it possible to tune the effective HNO production rate through controlled 2BrPA release (Table 2). Donors 2, with release rates slower than the half-life of 2BrPA, produce HNO at the rate of cyclization. The decomposition products, rates, and HNO production were analyzed and compared to 2BrPA (Table 2).

[4] = Monitoring of 2d decomposition byproducts by NMR; assay type: physicochemical; details: decomposition of 2d
Text: The cyclized byproduct 3, expected from an HNO forming pathway, from 2d, formed in approximately 60% yield (Scheme 4). The yield of 3 is consistent with the yield of HNO detected (64%) (Table 2). The cyclized product 5 also was identified and formed in approximately 10% yield. Another byproduct formed in approximately 30% yield.

For O=S(=O)(NO)c1ccccc1Br [2BrPA, N-hydroxy-2-bromobenzenesulfonamide], the HNO production [1] is listed as “high yield”.
In the case of CNCCOC(=O)ONS(=O)(=O)c1ccccc1Br.Cl [Cmpd 2a, 2-Bromo-benzenesulfonamidyl-2-(methylamino)-ethyl carbonate hydrochlor-ide], the “% HNO” value [2] is reported as 93%.
In the case of Cl.O=C(OCCNCc1ccccc1)ONS(=O)(=O)c1ccccc1Br [Cmpd 2b, 2-Bromo-benzenesulfonamidyl-2-(benzylamino)-ethyl carbonate hydrochlori-de], the “% HNO” value [2] is reported as 99%.
For CC(C)NCCOC(=O)ONS(=O)(=O)c1ccccc1Br [Cmpd 2c, 2-Bromo-benzenesulfonamidyl-2-(iso-propylamino)-ethyl carbonate hydroc-hloride], the half-life ([3]; PBS buffer, pH 7.4, text, fast-releasing derivatives (UV/vis values of Table 2), PBS buffer, read-out: half-life) was less than 60 s, the half-life ([3]; PBS, pH 7.4, 37° C. in PBS (pH 7.4), determined by UV/vis (SEM ± 5%; n = 3), read-out: t1/2 (converted)) was 47 s and the “% HNO” value [2] was 97%.
In the case of CC(C)(C)NCCOC(=O)ONS(=O)(=O)c1ccccc1Br [Cmpd 2d, 2-Bromo-benzenesulfonamidyl-2-(tert-butylamino)-ethyl carbonate hydrochl-oride], the half-life ([3]; PBS, pH 7.4, 37° C. in PBS (pH 7.4), determined by HPLC (SEM ± 5%; n = 3), read-out: t1/2 (converted)) is reported as 2820 s, the “% HNO” value [2] is reported as 64% and the “HNO production compared to 2BrPA” value [2] is reported as “significantly lower”. The HNO yield [2] was 64%, the “yield of another byproduct” value [4] was “approximately 30%” and the “yield of cyclized byproduct 3 (HNO forming pathway)” value [4] was “approximately 60%”. For the same compound, the “yield of cyclized product 5” value [4] was “approximately 10%”.
In the case of Cl.O=C(OCCNc1ccccc1)ONS(=O)(=O)c1ccccc1Br [Cmpd 2e, 2-Bromo-benzenesulfonamidyl-2-(phenylamino)-ethyl carbonate hydrochlo-ride], the “% HNO” value [2] is reported as 91%.
In the case of CC(C)NCCCOC(=O)ONS(=O)(=O)c1ccccc1Br.Cl [Cmpd 2h, 2-Bromo-benzenesulfonamidyl-3-(iso-propylamino)-propyl carbonate hydro-chloride], the “% HNO” value [2] is reported as 30%, the “HNO production compared to 2BrPA” value [2] is reported as “significantly lower” and the HNO yield [2] is reported as 30%.
With COc1ccc(NCCOC(=O)ONS(=O)(=O)c2ccccc2Br)cc1 [hydrochloride] the half-life ([3]; 37° C. in PBS (pH 7.4), determined by UV/vis (SEM ± 5%; n = 3), read-out: t1/2 (converted)) was 50 s, the half-life ([3]; pH 7.4, fast-releasing derivatives (UV/vis values of Table 2), PBS buffer, read-out: half-life) was 48 s and the “% HNO” value [2] was 93%.
With O=C(OCCNc1ccc(Cl)cc1)ONS(=O)(=O)c1ccccc1Br [hydrochloride] the half-life ([3]; PBS, pH 7.4, slow-releasing derivatives (HPLC values of Table 2), read-out: half-life) was 3000 s, the “% HNO” value [2] was 69% and the “HNO production compared to 2BrPA” value [2] was “significantly lower”. The HNO yield [2] was 69%.
